Series [1] is described as follows: Plasma metabolite analysis by LC-MS. The note with it: pooled 2-hour plasma samples. It counts as in vivo, BALB/c mice. As for the experimental part: Plasma pharmacokinetic parameters of ICL-CCIC-0019 were established in female BALB/c mice aged 6–8 weeks (Harlan). Mice were intraperitoneally (i.p.) or perorally (p.o.) administered a single dose of 10 mg/kg and blood collected by cardiac puncture after 5, 15, 30 minutes and 1, 2, 4, 6 and 24 h. For tissue pharmacokinetic studies, HCT116 xenograft bearing mice were administered 10 mg/kg ICL-CCIC-0019 i.p. and blood collected after 5 minutes, 2, 6 and 24 h. Plasma was obtained by centrifugation at 1000 × g for 10 minutes. Samples were snap-frozen and stored at −80°C prior to analysis. Analysis was carried out by Cyprotex Inc. using liquid chromatography–mass spectrometry (LC–MS). For analysis of plasma metabolites, 2-hour samples of tissue pharmacokinetic studies were pooled.

The test system of series [2] is HCT116 cells. The series is described as follows: [3H]choline uptake in HCT116 cells. Type of series: cell-based. The conditions noted are these: Homo sapiens, HCT-116. How it is done:
Enzymatic kinase activity, [^3H]choline to [^3H]PCho conversion and growth inhibition assays was conducted as previously described. [^3H]choline incorporation into soluble and lipid fractions was determined by a pulse-chase experiment. HCT116 cells were seeded at a density of 3 × 10^5 cell per well into 12-well plates and incubated overnight. Cells were treated with 1 or 10 μM ICL-CCIC-0019 for 1 h and pulsed in presence of inhibitor with 18.5 kBq/mL [^3H]choline chloride in 500 μL for 1 additional h. Cells were briefly rinsed with RPMI and incubated with fresh, non-radioactive medium for 6 h. Metabolites were extracted as described elsewhere, but additionally the radioactivity of the choline-containing and chloroform (lipid-containing) fractions was measured. Uptake of radiolabeled metabolite-tracers was measured as described elsewhere. Antiproliferative activity was measured after 72 h continuous exposure to inhibitors by sulforhodamine B (SRB) assay as described elsewhere. Apoptosis was determined using Caspase 3/7 Glo assay (Promega) according to the manufacturer's instructions.

Series [3] concerns non-small lung cancer cell lines. The series is described as follows: NCI-60 screen. Type of series: cell-based. The conditions noted are these: Homo sapiens, read-out: median GI50. The source says: (§1) The compound was then screened against a larger panel of cancer cell lines of diverse histopathologic origin, the NCI-60 screen. […] Mining of publicly available Cancer Genome Atlas (TCGA) expression data identified CHKA amplification and/or mRNA upregulation in 11% of breast, 5–10% of lung, 8% of ovarian, 7% of colorectal and 5% of prostate cancers. Furthermore, CHKA mRNA expression is higher in multiple tumor types compared to normal tissue (Supplementary Figure S1D). The gene was rarely mutated or deleted (0–2.5% mutation rate and < 1% deletion among all tested cancer types). The consistently high expression in a wide variety of tumor types highlights the relevance of CHKA in malignancy and role as a therapeutic target.

The subject of another series is Breast cancer cell lines. The series is described as follows: NCI-60 screen. The conditions noted are these: Homo sapiens, read-out: median GI50. It counts as cell-based.
Source text: as §1

The subject of series [4] is HCT116 cells. The series is described as follows: Cell membrane integrity assay (LDH release). It counts as cell-based, human. The note with it: 1–25 μM, 4 h. How it is done:
Cell membrane integrity was assessed using a fluorescent kit measuring lactate dehydrogenase (LDH) release (CytoTox-ONETM, Promega) according to manufacturer's instructions.

Another series concerns AMPK. The series is described as follows: Kinase selectivity screen. It counts as biochemical, rat. How it is done:
The substantially less demanding synthesis of ICL-CCIC-0019 compared with MN58B bears additional advantages. […] This consequently diminished intracellular PCho concentration, and importantly, the incorporation of [^3H]-choline into lipids (Figure 1D). […] To assess kinase specificity, ICL-CCIC-0019 was tested against a panel of 131 human kinases (Figure 1E and Supplementary Table S1). […] Inhibition greater than 20% was attained for insulin-like growth factor 1 (IGF-1R, 35 ± 7% inhibition), mitogen-activated protein kinase-activated protein kinase 3 (MAPKAP-K3, 33 ± 6%), extracellular signal regulated kinase 8 (ERK8, 31 ± 4%), ribosomal S6 kinase 1 (RSK1, 22 ± 6%), and v-erb-a erythroblastic leukemia viral oncogene homolog 4 (HER4, 21 ± 7%).

For series [5], the system named is HCT116 cells. The series is described as follows: Mitochondrial respiration (Seahorse XF24). The conditions noted are these: 10 μM. It counts as cell-based, human. How it is done:
Extracellular acidification and oxygen consumption rates (ECAR and OCR) were measured in a XF24 extracellular flux analyzer (Seahorse XF24 Extra Cellular Flux Analyzer, North Billerica, MA, USA). Basic XF assay medium was prepared as previously described supplemented with glucose, and the pH adjusted to 7.4 at 37°C. Indicated final concentrations of compounds were obtained by injecting appropriate amounts of compounds dissolved in DMSO or water and diluted in XF assay medium into ports. […] Indicated data points were obtained after 3 min mixing and 2 min wait, followed by 3 min of data collection. Data were normalized to the basal values.

In series [6] the test system is HCT116 cells. The series is described as follows: TMRE mitochondrial membrane potential assay. Type of series: cell-based, human. The conditions noted are these: 10 μM, 24 h. How it is done:
HCT116 cells were cultured as above with indicated inhibitors and subject to the tetramethylrhodamine ethyl ester dye method (TMRE) membrane potential assay according to the manufacturers instruction (Abcam ab113852) prior to FACS analysis.

The test system of the next series is HCT116 xenografts. The series is described as follows: Kinetic modeling of [18F]-D4-FCH PET data. Type of series: in vivo, BALB/c nude mice. The source says:
We employed kinetic modeling to further characterize ICL-CCIC-0019-mediated choline kinase inhibition in vivo. Whereas normalized tissue uptake values reflect tracer concentration in a 3-dimensional region of interest, kinetic modeling accounts for tissue uptake relative to plasma. A two-tissue irreversible compartmental model, as previously reported, was employed with the hypothesis that k3 would represent the rate by which the tracer is phosphorylated by choline kinase, (Supplementary Figure S2C). Although this enzymatic reaction is in principle reversible, it was assumed that the high dependency of cancer cells to incorporate choline made it unlikely that catalytic hydrolysis of PCho prevails. Best fits and more physiological parameters were obtained with a 3k (excluding k4) instead of a 4k model. […] In all examined tissues, the blood volume Vb decreased initially after treatment (Supplementary Figure S2D). These perfusion deficits were more pronounced and persistent in tumor compared to liver and kidney. To rule out that these kinetic changes are solely due to choline transport inhibition, we analyzed the choline metabolites of [^18F]-D4-FCH in HCT116 cells treated with ICL-CCIC-0019. As expected for CHKA inhibition, ICL-CCIC-0019 decreased the [^18F]-D4-PCho peak, changing the relative ratio of [^18F]-D4-Cho:[^18F]-D4-PCho from 72:28 in the vehicle control to 87:13 in the treatment group (Supplementary Figure S2E–S2F).
Kinetic analysis of PET data was performed applying a standard two-tissue irreversible compartmental model described in detail elsewhere.

Usually EC50 stands for the concentration giving half of the maximal effect. Read a high EC50 as a need for much substance. A word on the GI50: it is the concentration that inhibits growth by half. `CN(C)c1cc[n+](CCCCCCCCCCCC[n+]2ccc(N(C)C)cc2)cc1` [ICL-CCIC-0019]: the “metabolic stability in plasma” value in series [1] is listed as “metabolically stable”. In the series with HCT116 cells [2], this compound yielded an EC50 of 0.98 ± 0.24 µM. Also, the GI50 came to 0.751 µM in [3] and 0.627 µM in the series on Breast cancer cell lines. Besides, the “LDH concentration in the supernatant” value in the series on HCT116 cells [4] is given as “did not elevate LDH concentration”. Also, the “% activity remaining” value with AMPK (AMPK, 10 μM) was 109%. Moreover, in the series with AMPK (cell-free kinase assays), the “direct effect on AMPK activity” value was “did not directly alter AMPK activity”. In addition, the “mitochondrial respiration immediately after adding inhibitor (acute effect)” value with HCT116 cells [5] is on record as “decreased mitochondrial respiration”. The “TMRE-detectable mitochondrial membrane potential” value in the series on HCT116 cells [6] was “decreased”. Besides, the results for the “decrease of tumor K1 compared to control” value with HCT116 xenografts (24 hours) and in the series with HCT116 xenografts (48 hours) were 73% and 75%, respectively. Also, in the series on HCT116 xenografts (48 hours), the “macro parameter Ki (net irreversible uptake rate) in tumor” value is given as “significantly decreased”.

(Values after article PMC5095062, “The novel choline kinase inhibitor ICL-CCIC-0019 reprograms cellular metabolism and inhibits cancer cell growth” (Oncotarget, 2016).)
